For 26 compounds, IC50 results are on record in patent publication US20240425479A1, “HALO-SUBSTITUTED AMINO AZA-HETEROARYL COMPOUNDS AS INHIBITORS OF THE HAEMATOPOIETIC PROGENITOR KINASE 1 (HPK1)” (priority 2021, published 2024).

In the assay the target is T1, Recombinant (1-346) HPK1 (h) (Homo sapiens, UniProt Q92918).
T1 construct: Recombinant (1-346) HPK1 (h) is incubated with 8 mM MOPS pH 7.0
T1 sequence (Q92918 1-346): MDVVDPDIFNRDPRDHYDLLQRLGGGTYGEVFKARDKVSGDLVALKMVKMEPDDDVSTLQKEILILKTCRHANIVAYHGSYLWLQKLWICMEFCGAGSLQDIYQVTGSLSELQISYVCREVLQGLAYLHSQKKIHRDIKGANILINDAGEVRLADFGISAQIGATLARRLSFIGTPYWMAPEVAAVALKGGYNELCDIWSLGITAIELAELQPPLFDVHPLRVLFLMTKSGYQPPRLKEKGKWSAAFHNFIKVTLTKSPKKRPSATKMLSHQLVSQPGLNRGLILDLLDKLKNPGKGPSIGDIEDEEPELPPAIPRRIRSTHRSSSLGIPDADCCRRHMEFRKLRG
In words: HPK1 human STE kinase enzymatic radiometric assay. It is filed as biochemical. Particulars: read-out: HPK1 IC50 nM Range. Summed up: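 Recombinant HPK1 (1-346) incubated 40 min at RT with 0.33 mg/mL myelin basic protein and [gamma-33P]-ATP in 8 mM MOPS pH 7.0, 0.2 mM EDTA, 10 mM Mg acetate; reaction started with Mg/ATP. Stopped with 0.5% phosphoric acid, spotted on P30 filtermat, washed, scintillation counted. Compounds tested as 9-point 3-fold dilutions.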

Some results are limits rather than exact numbers.

For orientation: IC50 means the point on the concentration scale where inhibition reaches its midpoint. For the compound `CO[C@H]1CCN(Cc2cc(-c3nc(-c4cc(F)c5c(c4)CCNC5=O)c(N)nc3F)ccc2N2CCOCC2)C1` [Example I-158, (S)-6-(3-amino-5-fluoro-6-(3-((3-methoxypyrrolidin-1-yl)methyl)-4-morpholinophenyl)pyrazin-2-yl)-8-fluoro-3,4-dihydroisoquinolin-1(2H)-one], the IC50 is 0.1 to 10 nM. To `Nc1nc(F)c(-c2ccc(C3CCOCC3)c(CN3CCC3)c2)nc1-c1ccc2c(c1)CCNC2=O` [Example I-169, 6-(3-amino-6-(3-(azetidin-1-ylmethyl)-4-(tetrahydro-2H-pyran-4-yl)phenyl)-5-fluoropyrazin-2-yl)-3,4-dihydroisoquinolin-1(2H)-one] belongs 0.1 to 10 nM; to `C[C@@H]1CN(c2ccc(-c3nc(-c4cc(F)c5c(c4)CCNC5=O)c(N)nc3F)cc2CN(C)C)CCO1` [Example I-177, (R)-6-(3-amino-6-(3-((dimethylamino)methyl)-4-(2-methylmorpholino)phenyl)-5-fluoropyrazin-2-yl)-8-fluoro-3,4-dihydroisoquinolin-1(2H)-one], 0.1 to 10 nM.

Consider `Cc1c[nH]c(=O)c2c(F)cc(-c3nc(-c4ccc(N5CCN(C(C)C)CC5)cc4)c(F)nc3N)cc12` [Example I-166, 6-(3-amino-5-fluoro-6-(4-(4-isopropylpiperazin-1-yl)phenyl)pyrazin-2-yl)-8-fluoro-4-methylisoquinolin-1(2H)-one], for which the IC50 is 0.1 to 10 nM. In the case of `CN(C)Cc1cc(-c2nc(-c3ccc4c(c3)C3(CC3)CNC4=O)c(N)nc2F)ccc1N1CCOCC1` [Example I-105, 6′-(3-amino-6-(3-((dimethylamino)methyl)-4-morpholinophenyl)-5-fluoropyrazin-2-yl)-2′,3′-dihydro-1′H-spiro[cyclopropane-1,4′-isoquinolin]-1′-one], the IC50 lay within 0.1 to 10 nM. To `CCN(C)Cc1cc(-c2nc(-c3ccc4c(c3)CCNC4=O)c(N)nc2F)cc(C)c1OC` [Example I-297, 6-(3-amino-6-(3-((ethyl(methyl)amino)methyl)-4-methoxy-5-methylphenyl)-5-fluoropyrazin-2-yl)-3,4-dihydroisoquinolin-1(2H)-one] belongs 11 to 100 nM; to `Cc1[nH]c(=O)c2c(F)cc(-c3nc(-c4ccc(N5CCOCC5)c(CN(C)C)c4)c(F)nc3N)cc2c1F` [Example I-116, 6-(3-amino-6-(3-((dimethylamino)methyl)-4-morpholinophenyl)-5-fluoropyrazin-2-yl)-4,8-difluoro-3-methylisoquinolin-1(2H)-one], 0.1 to 10 nM. To `CN(C)Cc1cc(-c2nc(-c3cc4c(cc3F)C(=O)NCC4)c(N)nc2F)ccc1F` [Example I-273, 6-(3-amino-6-(3-((dimethylamino)methyl)-4-fluorophenyl)-5-fluoropyrazin-2-yl)-7-fluoro-3,4-dihydroisoquinolin-1(2H)-one] belongs 11 to 100 nM. The figure for `CN(C)[C@@H]1COc2ccc(-c3nc(-c4ccc5c(=O)[nH]cc(Cl)c5c4)c(N)nc3F)cc21` [Example I-252, (S)-6-(3-amino-6-(3-(dimethylamino)-2,3-dihydrobenzofuran-5-yl)-5-fluoropyrazin-2-yl)-4-chloroisoquinolin-1(2H)-one] is 0.1 to 10 nM. Regarding `Nc1nc(F)c(-c2ccc(N3CCOCC3)c(CN3CCC3)c2)nc1-c1ccc2c(=O)[nH]cc(F)c2c1` [Example I-199, 6-(3-amino-6-(3-(azetidin-1-ylmethyl)-4-morpholinophenyl)-5-fluoropyrazin-2-yl)-4-fluoroisoquinolin-1(2H)-one], the IC50 is 0.1 to 10 nM. The figure for `COC1CN(Cc2cc(-c3nc(-c4cc(F)c5c(c4)CCNC5=O)c(N)nc3F)ccc2C2CCOCC2)C1` [Example I-191, 6-(3-amino-5-fluoro-6-(3-((3-methoxyazetidin-1-yl)methyl)-4-(tetrahydro-2H-pyran-4-yl)phenyl)pyrazin-2-yl)-8-fluoro-3,4-dihydroisoquinolin-1(2H)-one] is 0.1 to 10 nM; for `C[C@@H]1CCCN1Cc1cc(-c2nc(-c3ccc4c(=O)[nH]cc(F)c4c3)c(N)nc2F)ccc1C1CCOCC1` [Example I-226, (R)-6-(3-amino-5-fluoro-6-(3-((2-tmethylpyrrolidin-1-yl)methyl)-4-(tetrahydro-2H-pyran-4-yl)phenyl)pyrazin-2-yl)-4-fluoroisoquinolin-1(2H)-one] it is 0.1 to 10 nM; for `Cc1c[nH]c(=O)c2ccc(-c3nc(-c4ccc(N5CCN(CCC(F)F)CC5)cc4)c(F)nc3N)cc12` [Example I-87, 6-(3-amino-6-(4-(4-(3,3-difluoropropyl)piperazin-1-yl)phenyl)-5-fluoropyrazin-2-yl)-4-methylisoquinolin-1(2H)-one] it is > 1000 nM. For `Cc1nc2cc(-c3nc(-c4ccc(C5CCOCC5)c(CN5CCC[C@@H]5C)c4)c(F)nc3N)cc(F)c2c(=O)[nH]1` [Example I-219, (S)-7-(3-amino-5-fluoro-6-(3-((2-methylpyrrolidin-1-yl)methyl)-4-(tetrahydro-2H-pyran-4-yl)phenyl)pyrazin-2-yl)-5-fluoro-2-methylquinazolin-4(3H)-one], the IC50 was in the range of 101 to 1000 nM. The figure for `Nc1nc(F)c(-c2ccc(N3CCOCC3)c(CN3CCC3)c2F)nc1-c1cc(F)c2c(c1)CCNC2=O` [Example I-245, 6-(3-amino-6-(3-(azetidin-1-ylmethyl)-2-fluoro-4-morpholinophenyl)-5-fluoropyrazin-2-yl)-8-fluoro-3,4-dihydroisoquinolin-1(2H)-one] is 11 to 100 nM; for `COc1ccc(-c2nc(-c3ccc4c(c3)CCNC4=O)c(N)nc2F)cc1C(C)N(C)C` (centres unmarked) [Example I-290, 6-(3-amino-6-(3-(1-(dimethylamino)ethyl)-4-methoxyphenyl)-5-fluoropyrazin-2-yl)-3,4-dihydroisoquinolin-1(2H)-one] it is 0.1 to 10 nM. The figure for `CN(C)Cc1cc(-c2nc(-c3ccc4c(=O)[nH]cc(F)c4c3)c(N)nc2F)ccc1N1CCOCC1` [Example I-89, 6-(3-amino-6-(3-((dimethylamino)methyl)-4-morpholinophenyl)-5-fluoropyrazin-2-yl)-4-fluoroisoquinolin-1(2H)-one] is 0.1 to 10 nM. The figure for `CN(C)Cc1cc(-c2nc(-c3ccc4c(=O)[nH]cc(Cl)c4c3)c(N)nc2F)ccc1N1CCOCC1` [Example I-153, 6-(3-amino-6-(3-((dimethylamino)methyl)-4-morpholinophenyl)-5-fluoropyrazin-2-yl)-4-chloroisoquinolin-1(2H)-one] is 0.1 to 10 nM; for `Cc1nc2cc(-c3nc(-c4ccc(N5CC6(CN(C)CCO6)C5)cc4)c(F)nc3N)ccc2c(=O)[nH]1` [Example I-130, 7-(3-amino-5-fluoro-6-(4-(8-methyl-5-oxa-2,8-diazaspiro[3.5]nonan-2-yl)phenyl)pyrazin-2-yl)-2-methylquinazolin-4(3H)-one] it is 101 to 1000 nM; for `Cc1[nH]c(=O)c2c(F)cc(-c3nc(-c4ccc(N5CCN(C(C)C)CC5)cc4)c(F)nc3N)cc2c1F` [Example I-111, 6-(3-amino-5-fluoro-6-(4-(4-isopropylpiperazin-1-yl)phenyl)pyrazin-2-yl)-4,8-difluoro-3-methylisoquinolin-1(2H)-one] it is 0.1 to 10 nM. As for `COC1CCN(Cc2cc(-c3nc(-c4ccc5c(c4)CCNC5=O)c(N)nc3F)ccc2C2CCOCC2)CC1` [Example I-131, 6-(3-amino-5-fluoro-6-(3-((4-methoxypiperidin-1-yl)methyl)-4-(tetrahydro-2H-pyran-4-yl)phenyl)pyrazin-2-yl)-3,4-dihydroisoquinolin-1(2H)-one], the IC50 is 11 to 100 nM.

On to `Nc1nc(F)c(-c2ccc(C3CCOCC3)c([C@@H]3CCCN3)c2)nc1-c1cc2c(cc1F)C(=O)NCC2` [Example I-19, (S)-6-(3-amino-5-fluoro-6-(3-(pyrrolidin-2-yl)-4-(tetrahydro-2H-pyran-4-yl)phenyl)pyrazin-2-yl)-7-fluoro-3,4-dihydroisoquinolin-1(2H)-one], for which the IC50 lay within 0.1 to 10 nM. The figure for `CCN(C)Cc1cc(-c2nc(-c3ccc4c(=O)[nH]cc(C)c4c3)c(N)nc2F)ccc1C1CCOCC1` [Example I-239, 6-(3-amino-6-(3-((ethyl(methyl)amino)methyl)-4-(tetrahydro-2H-pyran-4-yl)phenyl)-5-fluoropyrazin-2-yl)-4-methylisoquinolin-1(2H)-one] is 0.1 to 10 nM. To `Cc1c[nH]c(=O)c2ccc(-c3nc(-c4ccc(N5CCOCC5)c(CN5CCC5)c4)c(F)nc3N)cc12` [Example I-202, 6-(3-amino-6-(3-(azetidin-1-ylmethyl)-4-morpholinophenyl)-5-fluoropyrazin-2-yl)-4-methylisoquinolin-1(2H)-one] belongs 0.1 to 10 nM; to `COC1CCN(Cc2cc(-c3nc(-c4cc5c(cc4F)C(=O)NCC5)c(N)nc3F)ccc2N2CCOCC2)C1` (centres unmarked) [Example I-134, 6-(3-amino-5-fluoro-6-(3-((3-methoxypyrrolidin-1-yl)methyl)-4-morpholinophenyl)pyrazin-2-yl)-7-fluoro-3,4-dihydroisoquinolin-1(2H)-one], 0.1 to 10 nM; to `Cc1[nH]c(=O)c2c(F)cc(-c3nc(-c4ccc(N5CCN(CC6CC6)CC5)cc4)c(F)nc3N)cc2c1Cl` [Example I-107, 6-(3-amino-6-(4-(4-(cyclopropylmethyl)piperazin-1-yl)phenyl)-5-fluoropyrazin-2-yl)-4-chloro-8-fluoro-3-methylisoquinolin-1(2H)-one], 0.1 to 10 nM.
